# Test results published in US20260256759A1, “CONCOMITANT ADMINISTRATION OF GLUCOCORTICOID RECEPTOR MODULATOR RELACORILANT AND CYP2C8 SUBSTRATES” (priority 2020, published 2026).
# Target: T1, CYP2C8 (Homo sapiens, UniProt P10632)
# T1 sequence (P10632 1-490): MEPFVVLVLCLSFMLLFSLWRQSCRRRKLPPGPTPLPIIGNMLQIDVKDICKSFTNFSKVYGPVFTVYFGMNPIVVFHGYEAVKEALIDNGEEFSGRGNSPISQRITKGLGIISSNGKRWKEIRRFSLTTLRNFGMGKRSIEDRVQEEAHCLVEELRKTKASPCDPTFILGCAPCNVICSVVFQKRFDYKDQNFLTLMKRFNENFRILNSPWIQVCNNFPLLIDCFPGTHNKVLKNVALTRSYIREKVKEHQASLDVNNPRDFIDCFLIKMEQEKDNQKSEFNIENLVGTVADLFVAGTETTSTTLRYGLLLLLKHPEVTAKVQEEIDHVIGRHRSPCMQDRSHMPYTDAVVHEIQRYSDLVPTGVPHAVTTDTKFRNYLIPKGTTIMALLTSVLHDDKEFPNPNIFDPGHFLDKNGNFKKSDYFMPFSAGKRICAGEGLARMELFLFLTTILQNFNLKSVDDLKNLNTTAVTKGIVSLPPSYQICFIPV
# Assay: Clinical drug-drug interaction study in healthy volunteers (pioglitazone with/without relacorilant)
# Settings: Treatment E (with relacorilant 350 mg) vs Treatment B (alone)
# Description: An open-label, crossover study was conducted in healthy subjects to determine the effect of relacorilant on the plasma exposure of pioglitazone, a known probe substrate CYP2C8. A single dose of 15 mg of pioglitazone was administered alone and pharmacokinetic (PK) samples were collected before dosing (0 hour) and at 0.5, 1, 1.5, 2, 2.5, 3, 4, 6, 8, 12, 18, 24, 36, 48, 60, and 72 hours post-dose. Relacorilant (350 mg) was then administered once a day for 10 consecutive days. On the following day, a single dose of 15 mg of pioglitazone was administered in combination with relacorilant 350 mg and pharmacokinetic (PK) samples were again collected at pre-dose through 72 hours post-dose at the same timepoints as described above. The plasma concentrations of pioglitazone and its metabolite, pioglitazone M4 were evaluated by validated bioanalytical assays on each dosing occasion of pioglitazone.
smiles,measurement,value
"CCc1ccc(CCOc2ccc(CC3SC(=O)NC3=O)cc2)nc1 (stereo not drawn) [Pioglitazone, pioglitazone]","AUC0-tz, Ratio of Geometric LSMs (Test/Reference)",74.71%
same,"AUCinf, Ratio of Geometric LSMs (Test/Reference)",74.83%
same,"Cmax, Ratio of Geometric LSMs (Test/Reference)",77.82%
